Earlier results in publication PMC6009888, “Design, synthesis, and pharmacological evaluation of 2-amino-5-nitrothiazole derived semicarbazones as dual inhibitors of monoamine oxidase and cholinesterase: effect of the size of aryl binding site” (Journal of Enzyme Inhibition and Medicinal Chemistry, 2017).

Columns and labels:
MAO-B [1] = molecular target: T1, MAO-B (Rattus norvegicus, UniProt P19643); design: method as in PMID 27135466; conditions: reference inhibitors; ref [50]; read-out: MAO-B In vitro IC50 (µM) ± SEM; cited from earlier work
T1 construct: employing crude rat brain mitochondrial suspension; from tissue; host or cells: brain mitochondria of adult Wistar rats
T1 sequence (P19643 1-520): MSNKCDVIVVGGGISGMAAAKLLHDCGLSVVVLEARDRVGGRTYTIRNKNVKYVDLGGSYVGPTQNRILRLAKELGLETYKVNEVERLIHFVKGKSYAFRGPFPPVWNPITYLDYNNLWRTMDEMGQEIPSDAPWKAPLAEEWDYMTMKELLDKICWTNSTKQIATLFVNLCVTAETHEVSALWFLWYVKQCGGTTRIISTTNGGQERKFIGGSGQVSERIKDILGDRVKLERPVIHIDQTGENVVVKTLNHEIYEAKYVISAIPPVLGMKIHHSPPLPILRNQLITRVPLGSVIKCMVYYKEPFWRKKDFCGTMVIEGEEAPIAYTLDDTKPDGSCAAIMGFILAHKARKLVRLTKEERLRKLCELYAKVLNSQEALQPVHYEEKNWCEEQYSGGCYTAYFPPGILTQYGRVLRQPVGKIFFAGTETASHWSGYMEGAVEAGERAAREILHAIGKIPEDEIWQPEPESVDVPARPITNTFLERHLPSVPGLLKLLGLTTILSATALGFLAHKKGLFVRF

MAO-A [2] = molecular target: T2, MAO-A (Rattus norvegicus, UniProt P21396); conditions: reference inhibitors; ref [50]; read-out: MAO-A In vitro IC50 (µM) ± SEM; cited from earlier work
T2 construct: employing crude rat brain mitochondrial suspension; from tissue; host or cells: brain mitochondria of adult Wistar rats
T2 sequence (P21396 1-526): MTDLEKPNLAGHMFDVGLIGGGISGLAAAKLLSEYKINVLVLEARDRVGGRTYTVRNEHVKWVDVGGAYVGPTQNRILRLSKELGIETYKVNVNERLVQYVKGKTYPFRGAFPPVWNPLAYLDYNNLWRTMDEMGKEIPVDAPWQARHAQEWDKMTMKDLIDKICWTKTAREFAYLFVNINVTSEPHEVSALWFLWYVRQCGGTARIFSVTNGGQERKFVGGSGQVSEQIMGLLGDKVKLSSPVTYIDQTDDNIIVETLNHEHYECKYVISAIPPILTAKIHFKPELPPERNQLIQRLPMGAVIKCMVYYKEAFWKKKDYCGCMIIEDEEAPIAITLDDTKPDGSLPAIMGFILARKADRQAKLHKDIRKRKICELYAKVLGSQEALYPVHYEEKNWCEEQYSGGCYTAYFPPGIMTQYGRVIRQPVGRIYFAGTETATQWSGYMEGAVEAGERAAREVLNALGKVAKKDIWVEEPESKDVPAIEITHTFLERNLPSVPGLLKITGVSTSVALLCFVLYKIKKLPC

MAO-B [3] = test system: MAO-B; design: method as in PMID 12553895, PMID 23325700, PMID 27135466; conditions: Figure 1, lead semicarbazone inhibitors; ref [47–50]; cited from earlier work
MAO-A [4] = test system: MAO-A; design: method as in PMID 12553895, PMID 23325700, PMID 27135466; conditions: Figure 1, lead semicarbazone inhibitors; ref [47–50]; cited from earlier work
AChE = test system: AChE; design: method as in PMID 12553895, PMID 23325700, PMID 27135466; conditions: Figure 1, lead semicarbazone inhibitors; ref [47–50]; cited from earlier work

| Compound | IC50 (MAO-B [1]) | IC50 (MAO-A [2]) | IC50 (MAO-B [3]) | IC50 (MAO-A [4]) | IC50 (AChE) |
| --- | --- | --- | --- | --- | --- |
| COc1ccc2c(c1)[nH]c1c(C)nccc12 [HRM, Harmine] | 7000 µM | 3 µM |  |  |  |
| O=C(N/N=C1/C(=O)Nc2ccccc21)Nc1nc2ccc([N+](=O)[O-])cc2s1 [(v)] |  |  | 2.15 ± 0.095 µM | 5.98 ± 0.534 µM |  |
| CNC(=O)N(CCO)/N=C/c1ccc(OCc2ccccc2)cc1 [(iv)] |  |  | 2.2 µM | 90 µM |  |
| O=C(NN=C(c1ccccc1)c1ccccc1)Nc1ccncc1 [(iii)] |  |  |  |  | 0.052 ± 0.01 µM |
| O=C(N/N=C(\c1ccccc1)c1ccc(Cl)cc1)Nc1nc2ccc([N+](=O)[O-])cc2s1 [(i)] |  |  | 0.004 ± 0.001 µM | 0.184 ± 0.001 µM |  |
| O=C(N/N=C/c1c(Cl)cccc1Cl)Nc1ccc2c(c1)OCO2 [(ii)] |  |  | 0.059 ± 0.002 µM | 4.52 ± 0.032 µM | 0.0087 ± 0.0002 µM |
